Source: a melting point compilation (Tetko et al.; mined from patent text by program, amines drawn as free bases though some values may be those of a salt)

SMILES | melting point [°C]
O=[N+]([O-])c1cccc(/C=C/c2nc(C3CC3)cs2)c1 | 90 to 95
CC[C@H](COC)n1cc(Br)nc(N2CCc3cc(OC)c(F)c(Cl)c32)c1=O | 150 to 152
O=Cc1ccc2[nH]c(C(=O)OCc3ccccc3)cc2c1 | 172
CCCc1c(OCc2cccn3c(=O)c(C(=O)O)cnc23)ccc(C(C)=O)c1O | 170 to 172
Cc1nn(-c2ccccn2)c2[nH]c3ccccc3c(=O)c12 | 199 to 200
COc1ccc(N2CCCN(c3c(C)c(C)c4c(c3C)CC(C)(C)O4)CC2)cc1 | 105 to 107
COC(=O)C1=C(C)Nc2c(c(-c3ccccc3)nn2-c2ccccc2)C1c1cccc([N+](=O)[O-])c1 (centres undefined) | 186 to 189
COc1ccc(CN2C(=O)[C@H]3CCC[C@H]3N(C(=O)CN3C(=O)c4ccccc4C3=O)c3ccccc32)cc1 (relative stereo) | 237 to 238
CC(C)N1CCN(Cc2ccc(-c3ccc4c(Nc5ccc(Sc6nccn6C)c(Cl)c5)c(C#N)cnc4c3)cc2)CC1 | 193 to 195
CCCCCC(=O)OCC(=O)C1CC2c3cccc4[nH]cc(c34)CC2N(C)C1 (centres undefined) | 135 to 137
COC(=O)C(O)C(O)C(O)C(O)C(=O)OC (centres undefined) | 90.2 to 90.7
COC(=O)c1cc(SC(=O)N(C)C)cc(SC(=O)N(C)C)c1 | 128 to 130
N#Cc1c(N2CCCCC2)cc(-c2cccs2)c2c1C(=O)c1ccccc1-2 | 226 to 228
COc1cc(Nc2c(C#N)cnc3cc(Br)sc23)c(Cl)cc1Cl | 228 to 229
CNc1cc(Cl)c(OC)c([N+](=O)[O-])c1OC | 57
C=CC[C@](N)(Cc1ccccc1)C(=O)O | 158 to 159
Cc1cccc(NC(=O)NCC(=O)N(CC(=O)OCC2CC2)c2ccccc2)c1 | 158
COC(=O)CNc1ccc(C(C)C)cc1 | 35 to 36
Cc1c(NCCNC(=O)OC(C)(C)C)c([N+](=O)[O-])c2nnnn2c1C | 145 to 147
C=C(C)C(=O)OCCC#Cc1ccc2c(ccc3cc(OC(=O)C(=C)C)ccc32)c1 | 91
COc1nc(OC)nc(N(C)C(=O)NS(=O)(=O)c2ccccc2C(F)F)n1 | 164 to 170
Cc1ccc(N2C(=O)C(O)=C(C(=NOCC(=O)O)c3ccc(C(C)C)cc3)C2c2ccc(OC(F)(F)F)cc2)nn1 (centres undefined) | 227
COc1c(C)cnc(CSc2nc(C)cc(=O)[nH]2)c1C | 231 to 233
COC1(C(C)=O)CCC2C3CCC4=CC(=O)CCC4(C)C3CCC21C (centres undefined) | 196 to 197
O=C(CCCN1CCC(c2ccccc2Cc2ccccc2)C1)c1ccc(F)cc1 (centres undefined) | 126 to 128

SMILES | melting point [°C]
CCOC(=O)c1cc(SCc2ccccc2)c(Sc2ccccc2)c(S(N)(=O)=O)c1 | 151 to 152
Cn1c(=O)oc(=O)c2cc(F)ccc21 | 133
CCN(CC)CCCNC(=O)Cn1ncc(-c2ccc(N)cc2)c1-c1ccccc1 | 75 to 76
CCOC(=NC(=O)c1ccc(Cl)cc1Cl)N1Cc2ccccc2-c2ccccc2C1 | 158 to 159
CCOC(=O)C(C(=O)CCC(C)C)C1c2ccccc2C(=O)N1c1ccc2ccc(F)nc2n1 (centres undefined) | 140
N#CN=C(Nc1cccc(-c2cccc(S(=O)(=O)NC(CC(=O)O)c3ccccc3)c2)c1)NC1CC1 (centres undefined) | 120
CCOC(=O)C(=C1CCCN1C)c1ccc([N+](=O)[O-])cc1 | 82 to 83
O=C(Nc1c(C(O)(C(F)(F)F)C(F)(F)F)ccc2ccccc12)c1ccc(OC(F)(F)F)cc1 | 179 to 180
O=C1CC(CO)C(c2ccc(N3CCOCC3)c(Cl)c2)=NN1 (centres undefined) | 173 to 175
CC(=O)c1ccc2cc(N3CCN(C(=O)OC(C)(C)C)CC3)ccc2c1 | 153 to 154
Cc1ccccc1C1=C(CC(=O)Nc2c(C(C)C)cccc2C(C)C)CN(C)c2ccc(Cl)cc21 | 160
O=C1CCn2c(-c3ccccc3)nc3c(Cl)ccc1c32 | 206 to 209
CCOC(=O)c1[nH]c(C)nc1C(=S)OCC | 119 to 121
COc1cccc(OC)c1Cc1c(Cl)ncnc1Cl | 152 to 153
N#CSc1nc(Cl)ncc1Cl | 160 to 162
c1ccc(CN2CCOc3cccc4nc5c(c2c34)CCCC5)cc1 | 132 to 133
CCOC(=O)c1cccc2ncc(CN(C)C)n12 | 117 to 118
CC[C@H]1C(=O)C[C@@H]2C[C@H]1OO[C@@]2(/C=C/C(=O)c1ccc(Cl)cc1)CC | 127
C#CCNc1onc(-c2ccccc2)c1Cl | 83 to 84
CC(=O)N1CCC2(CC1)CC(=O)c1cc(S(C)(=O)=O)ccc1O2 | 105 to 110
COC(=O)c1cc(-c2ccc(C)cc2)no1 | 106 to 108
COc1nc2c(C)cc(C)cc2c(-c2ccccc2Cl)c1N(C(N)=O)c1ccc(F)cc1F | 231 to 232
Nc1cc(F)c2c(c1)Cc1cc(F)ccc1-2 | 119 to 120
COc1ccc2c(c1)CC(C(=O)NCc1ccc(C(=O)O)cc1)N2S(=O)(=O)c1ccc(-c2ccc(F)cc2F)cc1 (centres undefined) | 143
O=c1[nH]c2ccc(Cl)cc2c(=O)c2ccccc12 | 289 to 293

SMILES | melting point [°C]
COc1ccc(F)c(/C=C/CN2C(=O)c3ccccc3C2=O)c1 | 118
COC(=O)c1ccc(C#Cc2ccccc2)cc1 | 114
N#Cc1cnc2sc(-c3ccccc3C=O)cc2c1Nc1cccc2[nH]ccc12 | 137 to 139
CCCCCCCCCCCCC(C)N(c1ccccc1)P(=O)(O)O (centres undefined) | 60 to 64
CN(C)CCCC1(O)c2ccccc2CCn2cccc21 (centres undefined) | 68 to 70
CCn1cc(C(=O)O)c(=O)c2cc3c(nc21)CCO3 | 292
CCCSc1nc(NC2CC2c2ccccc2)c2nnn(C3CC(C(=O)NC)C(O)C3O)c2n1 (centres undefined) | 165 to 166
CC(C)(C)OC(=O)NC(Cc1ccc(-c2cccc(CNCC(=O)c3ccccc3)c2)cc1)C(=O)O (centres undefined) | 80
CCOC(=O)c1ccc(/C=C(\C)c2ccc3c(c2)C(C)(C)CCN3C)cc1 | 100 to 101
ClCCCOc1ccc(-c2ccc(OCCCCl)cc2)cc1 | 201
CC1(C)CCC(N2c3ccccc3Oc3ccccc32)=N1 | 148 to 150
COC(=O)C(NC(=S)n1nc(Oc2ncc(C(F)(F)F)cc2Cl)cc1C)C(C)C (centres undefined) | 109 to 110
COc1ccc(CCCC(=O)O)c(Cl)c1Cl | 120 to 123
CC(C)(C)OC(=O)Nc1cc(N2CCC(OC3CCCCO3)CC2)c(-c2ccc(F)cc2)cc1[N+](=O)[O-] (racemic) | 144 to 146
Fc1ccc2nc(S)oc2c1 | 248 to 250
CCOC(=O)C(C)Oc1ccc(C(=O)Nc2ccccc2Sc2ccccc2-c2nnn[nH]2)cc1 (centres undefined) | 157 to 158
O=C1Nc2cccnc2Nc2ccsc21 | 273 to 279
CCCCOc1c(CN2C(=O)c3ccccc3C2=O)n(CCC(=O)N2CCCC2)c(=O)c2cc(Cl)c(Cl)cc12 | 222
CC(C)Oc1c(C(N)=O)sc2ccc(N)cc12 | 150 to 151
CCc1nc2cnc3ccc(OCc4ccccc4)cc3c2n1C | 168 to 169
CC(C)NC(=O)N[C@@H](Cc1ccccc1)[C@H](O)[C@H](O)[C@H](Cc1ccccc1)NC(=O)NC(C)C | 220 to 222
CC(C)(C)OC(=O)C(Nc1ccccc1)c1cccc(Cl)c1 (racemic) | 96
Cc1cc(C)c2nc(NCCCO)n(Cc3nc(C)ccc3O)c2c1 | 170
C=CC[C@H]1C(=O)N(S(=O)(=O)c2cccc(S(=O)(=O)N(C)C)c2)[C@H]2CCN(C(=O)OCc3ccccc3)[C@H]12 (relative stereo) | 70 to 75
CCn1ccc(Nc2cc(Br)cn(C)c2=O)n1 | 165 to 167

SMILES | melting point [°C]
O=C1OC(c2ccc(Cl)cc2)c2ccccc21 (centres undefined) | 124
Cc1oc(-c2ccc(C(F)(F)F)cc2)nc1CCl | 84 to 85
C#CC[C@@H](NC(=O)OC(C)(C)C)c1nc2cccnc2c(=O)n1Nc1ccccc1 | 108 to 110
CCC(=O)CC(=O)OCCC#N | 98 to 100
O=c1oc(-c2cccc(OCc3ccccc3)c2)cc(O)c1SCCc1ccccc1 | 126 to 127
CCCCCCCCc1sc(NC(=O)C2(C)Cc3cc(C)ccc3N2Cc2cccc(C(=O)OC)c2)nc1-c1cc(OC)c(Cl)cc1OC (centres undefined) | 165 to 166
CON=C(c1ccccc1)c1ccc2c(c1)NC(=O)CO2 | 147 to 149
c1c(N2CCCC2)nc(N2CCNCC2)nc1N1CCCC1 | 152 to 160
Fc1ccc(-c2cc(C(F)(F)F)n[nH]2)c(F)c1 | 157 to 158
Cc1cc(-c2nc3cccnn3c2-c2ccnc(NC(=O)Nc3ccsc3)c2)ccc1F | 234 to 235
Cn1ncc2[nH]c3ccc(Cc4ccccc4Cl)cc3c(=O)c21 | 278
CS(=O)(=O)c1ccc(-c2cc(S(C)(=O)=O)nn2-c2ccc(F)cc2)cc1 | 209 to 210
Cc1cc(NC(=O)CCCCCBr)ccc1O | 111 to 112
Cc1ccc(-c2cncc(OC3SCC(O)C(O)C3O)c2)c(Cl)c1 (centres undefined) | 207
COC(=O)NCC(C)(C)c1ccc(NC(=O)c2ccc(OC)c(OC)c2)cc1 | 67 to 69
O=c1[nH]c2ccc(S(=O)CCN3CCC(O)(Cc4ccccc4)CC3)cc2o1 (centres undefined) | 138 to 140
COC(=O)c1nc(-c2ccc(Cl)c(OC)c2F)nc(N)c1/C=C/Br | 171 to 173
O=C1NC(=O)c2c1c(-c1ccccc1)c(-c1ccccc1)c1[nH]c3ccc(O)cc3c21 | > 300
C[C@H]1C(=O)C[C@@H]2C[C@H]1OO[C@]2(C)/C=C\c1ccc(C(F)(F)F)cc1C(F)(F)F | 124
O=C(O)c1ccc2sc(Cc3cccnc3)cc2c1 | 246 to 249
CCCC(C)SC(=O)c1ccc(NC(=O)NC)cc1Cl (centres undefined) | 89 to 95
Oc1cccc([C@H]2CCCC[C@H]2NCCCc2ccccc2)c1 (racemic) | 112 to 113
O=c1oc(C(F)(F)F)nc2ccc(I)cc12 | 131 to 132
CC(O)c1nc(NCCCOc2cccc(CN3CCCCC3)c2)n(C)n1 (centres undefined) | 67 to 68
